From US7723295B2, “Peptides and compounds that bind to a receptor” (Ortho-McNeil Pharmaceutical, Inc., priority 2003, dated 2010)

What was measured:
[1] = target: T1, human TPO receptor (Homo sapiens, UniProt P40238); test: relative luminescent units assay, murine cells expressing human TPO receptor and fos-promoter luciferase reporter; type: cell-based; conditions: FIG. 1; three batches of TPO Compound No. 1 vs one batch of prior art peptide compound
T1 construct: expressed in transfected cells
T1 sequence (P40238 26-635): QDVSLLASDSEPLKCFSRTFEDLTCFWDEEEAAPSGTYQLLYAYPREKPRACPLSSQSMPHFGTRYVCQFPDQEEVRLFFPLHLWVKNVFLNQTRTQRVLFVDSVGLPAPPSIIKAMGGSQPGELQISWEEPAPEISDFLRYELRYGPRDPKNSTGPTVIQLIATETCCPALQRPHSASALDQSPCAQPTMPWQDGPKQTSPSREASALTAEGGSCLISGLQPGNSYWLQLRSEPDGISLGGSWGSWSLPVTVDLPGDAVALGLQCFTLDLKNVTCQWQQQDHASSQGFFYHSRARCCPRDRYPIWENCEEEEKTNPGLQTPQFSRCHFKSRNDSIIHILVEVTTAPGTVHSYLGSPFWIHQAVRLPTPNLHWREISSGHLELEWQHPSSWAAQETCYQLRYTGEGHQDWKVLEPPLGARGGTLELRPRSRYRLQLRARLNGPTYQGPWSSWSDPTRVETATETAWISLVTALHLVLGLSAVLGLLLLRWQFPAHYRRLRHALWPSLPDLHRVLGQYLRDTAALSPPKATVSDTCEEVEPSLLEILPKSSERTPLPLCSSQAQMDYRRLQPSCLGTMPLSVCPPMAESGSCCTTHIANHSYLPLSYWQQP
Description: The assay employs murine cells engineered to stably express the human TPO receptor and a luciferase reporter construct driven by the fos promoter.

[2] = test system: platelet counts; test: Phase I pharmacodynamics, elevation in platelet counts; type: in vivo, human; conditions: for n (>1.5×), subjects with platelet increase / n (>2×), subjects with platelet increase / n (>3×), subjects with platelet increase / n (>4×), subjects with platelet increase: N=6

Q: Which “activity (relative luminescent units), compared between compounds” value [1] does the source give for “(H-IEGPTLRQ(2-Nal)LAAR(Sar))2K-NH2 [TPO Compound No. 1]” here?
A: Its value is “similar”.

Q: And the “Pltmax, first value (mean peak platelet count)” value (“Pltmax, first value” for short) ([2]; 0.375 μg/kg single i.v.)?
A: The value was 315 10^9/L.

Q: What about the “Pltmax, range in brackets” value ([2]; 0.375 μg/kg single i.v.) of the same substance?
A: The value was “(214-482) 10^9/L”.

Q: And the “Pltmax, second value after the slash (footnote not given)” value ([2]; 0.375 μg/kg single i.v.)?
A: The value was 309 10^9/L.

Q: And the “Pltmax/Plt0, first value (mean)” value ([2]; 0.375 μg/kg single i.v.)?
A: Its value is 1.42/1.42.

Q: What about the “Pltmax/Plt0, range in brackets” value ([2]; 0.375 μg/kg single i.v.) of the same substance?
A: The value was “(1.08-1.81)”.

Q: What about the “Pltmax/Plt0, second value after the slash (footnote not given)” value (from here on “Pltmax/Plt0 … (footnote not given)”) ([2]; 0.375 μg/kg single i.v.) of the same substance?
A: The value was 1.42/1.42.

Q: What about the “n (>1.5×), subjects with platelet increase” value ([2]; 0.375 μg/kg single i.v.) of the same substance?
A: Its value is 3.

Q: And the “n (>2×), subjects with platelet increase” value ([2]; 0.375 μg/kg single i.v.)?
A: The value was 0.

Q: And the “n (>3×), subjects with platelet increase” value ([2]; 0.375 μg/kg single i.v.)?
A: The value was 0.

Q: What about the “n (>4×), subjects with platelet increase” value ([2]; 0.375 μg/kg single i.v.) of the same substance?
A: The value was 0.

Q: What about the “Pltmax, first value” value ([2]; 0.75 μg/kg single i.v.) of the same substance?
A: The value was 347 10^9/L.

Q: What about the “Pltmax, range in brackets” value ([2]; 0.75 μg/kg single i.v.) of the same substance?
A: The value was “(232-495) 10^9/L”.

Q: And the “Pltmax, second value after the slash (footnote not given)” value ([2]; 0.75 μg/kg single i.v.)?
A: The value was 335 10^9/L.

Q: What about the “Pltmax/Plt0, first value (mean)” value ([2]; 0.75 μg/kg single i.v.) of the same substance?
A: Its value is 1.63/1.63.

Q: What about the “Pltmax/Plt0, range in brackets” value ([2]; 0.75 μg/kg single i.v.) of the same substance?
A: The value was “(1.15-2.12)”.

Q: What about the “Pltmax/Plt0 … (footnote not given)” value ([2]; 0.75 μg/kg single i.v.) of the same substance?
A: The value was 1.63/1.63.

Q: And the “n (>1.5×), subjects with platelet increase” value ([2]; 0.75 μg/kg single i.v.)?
A: Its value is 3.

Q: And the “n (>2×), subjects with platelet increase” value ([2]; 0.75 μg/kg single i.v.)?
A: The value was 1.

Q: And the “n (>3×), subjects with platelet increase” value ([2]; 0.75 μg/kg single i.v.)?
A: The value was 0.

Q: And the “n (>4×), subjects with platelet increase” value ([2]; 0.75 μg/kg single i.v.)?
A: Its value is 0.

Q: And the “Pltmax, first value” value ([2]; 1.5 μg/kg single i.v.)?
A: Its value is 430 10^9/L.

Q: And the “Pltmax, range in brackets” value ([2]; 1.5 μg/kg single i.v.)?
A: The value was “(238-597) 10^9/L”.

Q: What about the “Pltmax, second value after the slash (footnote not given)” value ([2]; 1.5 μg/kg single i.v.) of the same substance?
A: The value was 458 10^9/L.

Q: And the “Pltmax/Plt0, first value (mean)” value ([2]; 1.5 μg/kg single i.v.)?
A: The value was 1.91.

Q: And the “Pltmax/Plt0, range in brackets” value ([2]; 1.5 μg/kg single i.v.)?
A: The value was “(1.01-2.59)”.

Q: And the “Pltmax/Plt0 … (footnote not given)” value ([2]; 1.5 μg/kg single i.v.)?
A: The value was 2.13.

Q: What about the “n (>1.5×), subjects with platelet increase” value ([2]; 1.5 μg/kg single i.v.) of the same substance?
A: The value was 4.

Q: And the “n (>2×), subjects with platelet increase” value ([2]; 1.5 μg/kg single i.v.)?
A: Its value is 3.

Q: And the “n (>3×), subjects with platelet increase” value ([2]; 1.5 μg/kg single i.v.)?
A: Its value is 0.

Q: What about the “n (>4×), subjects with platelet increase” value ([2]; 1.5 μg/kg single i.v.) of the same substance?
A: Its value is 0.

Q: And the “Pltmax, first value” value ([2]; 2.25 μg/kg single i.v.)?
A: The value was 454 10^9/L.

Q: What about the “Pltmax, range in brackets” value ([2]; 2.25 μg/kg single i.v.) of the same substance?
A: Its value is “(254-576) 10^9/L”.

Q: What about the “Pltmax, second value after the slash (footnote not given)” value ([2]; 2.25 μg/kg single i.v.) of the same substance?
A: The value was 500 10^9/L.

Q: What about the “Pltmax/Plt0, first value (mean)” value ([2]; 2.25 μg/kg single i.v.) of the same substance?
A: The value was 2.15.

Q: What about the “Pltmax/Plt0, range in brackets” value ([2]; 2.25 μg/kg single i.v.) of the same substance?
A: The value was “(1.28-2.98)”.

Q: And the “Pltmax/Plt0 … (footnote not given)” value ([2]; 2.25 μg/kg single i.v.)?
A: Its value is 2.33.

Q: What about the “n (>1.5×), subjects with platelet increase” value ([2]; 2.25 μg/kg single i.v.) of the same substance?
A: Its value is 4.

Q: What about the “n (>2×), subjects with platelet increase” value ([2]; 2.25 μg/kg single i.v.) of the same substance?
A: The value was 4.

Q: And the “n (>3×), subjects with platelet increase” value ([2]; 2.25 μg/kg single i.v.)?
A: Its value is 0.

Q: What about the “n (>4×), subjects with platelet increase” value ([2]; 2.25 μg/kg single i.v.) of the same substance?
A: Its value is 0.

Q: What about the “Pltmax, first value” value ([2]; 3.0 μg/kg single i.v.) of the same substance?
A: The value was 685 10^9/L.

Q: And the “Pltmax, range in brackets” value ([2]; 3.0 μg/kg single i.v.)?
A: The value was “(188-979) 10^9/L”.

Q: And the “Pltmax, second value after the slash (footnote not given)” value ([2]; 3.0 μg/kg single i.v.)?
A: The value was 750 10^9/L.

Q: And the “Pltmax/Plt0, first value (mean)” value ([2]; 3.0 μg/kg single i.v.)?
A: The value was 3.21.

Q: What about the “Pltmax/Plt0, range in brackets” value ([2]; 3.0 μg/kg single i.v.) of the same substance?
A: The value was “(1.25-4.52)”.

Q: And the “Pltmax/Plt0 … (footnote not given)” value ([2]; 3.0 μg/kg single i.v.)?
A: Its value is 3.50.

Q: What about the “n (>1.5×), subjects with platelet increase” value ([2]; 3.0 μg/kg single i.v.) of the same substance?
A: Its value is 5.

Q: What about the “n (>2×), subjects with platelet increase” value ([2]; 3.0 μg/kg single i.v.) of the same substance?
A: Its value is 5.

Q: What about the “n (>3×), subjects with platelet increase” value ([2]; 3.0 μg/kg single i.v.) of the same substance?
A: The value was 4.

Q: And the “n (>4×), subjects with platelet increase” value ([2]; 3.0 μg/kg single i.v.)?
A: Its value is 1.
